Laboratory results taken from paper PMC11059360 (Nature Communications, 2024).

Biological target: T1, SLC26A2 (Homo sapiens, UniProt P50443)
T1 construct: full length, N-terminal His-tag and thrombin site (tag digested with thrombin for cryo-EM); Expi293F, BacMam; LMNG; homodimer; model covers residues 52-724
T1 sequence (P50443 1-739): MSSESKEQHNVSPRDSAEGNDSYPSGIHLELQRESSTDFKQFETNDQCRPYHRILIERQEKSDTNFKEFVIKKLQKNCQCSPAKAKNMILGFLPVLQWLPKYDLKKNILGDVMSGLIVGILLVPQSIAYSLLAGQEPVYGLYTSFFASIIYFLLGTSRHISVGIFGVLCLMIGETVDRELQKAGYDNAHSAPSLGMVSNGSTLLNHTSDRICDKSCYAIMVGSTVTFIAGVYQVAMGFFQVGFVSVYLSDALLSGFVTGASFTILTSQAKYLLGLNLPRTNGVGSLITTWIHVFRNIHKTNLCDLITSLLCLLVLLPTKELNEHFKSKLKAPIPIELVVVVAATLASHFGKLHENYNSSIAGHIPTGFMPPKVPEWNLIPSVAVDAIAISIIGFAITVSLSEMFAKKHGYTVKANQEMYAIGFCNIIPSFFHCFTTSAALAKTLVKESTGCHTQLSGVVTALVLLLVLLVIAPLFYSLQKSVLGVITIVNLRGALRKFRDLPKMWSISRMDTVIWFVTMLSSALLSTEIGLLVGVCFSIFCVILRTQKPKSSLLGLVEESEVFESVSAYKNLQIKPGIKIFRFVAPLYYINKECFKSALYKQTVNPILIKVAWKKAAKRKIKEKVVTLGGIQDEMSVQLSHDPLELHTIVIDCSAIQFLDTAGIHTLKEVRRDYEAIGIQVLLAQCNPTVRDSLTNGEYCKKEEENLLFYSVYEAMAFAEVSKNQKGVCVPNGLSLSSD
Assay: cryo-EM structure of the complex
Assay type: binding
Conditions: pH 7.5, LMNG

Compound | cryo-EM structure of the complex (50 mM K2C2O4, no NaCl, weak density outside the canonical pocket, between TM5 and TM12) | cryo-EM structure of the complex (150 mM NaCl, canonical TM3/TM10 pocket, inward-facing)
O=C(O)C(=O)O [C2O4^2−] | weak densities outside the pocket | 
Cl [Cl^−] |  | we identified a distinct density corresponding to the Cl^- ion in this cleft
